From patent US20210330659A1, “USE OF NICOTINAMIDE COMPOSITION IN PREPARATION OF DRUG FOR TREATING HAND-FOOT SKIN REACTION INDUCED BY SORAFENIB” (ZHEJIANG UNIVERSITY, priority 2018, published 2021)

Legend:
[1] = test system: keratin 1, keratin 10 and Loricrin in HaCaT cells; experiment: mRNA levels of keratinization indicators in HaCaT cells given HUVEC conditioned medium; format: cell-based
Procedure: (§1) HUVEC cells were administrated with 15 μM sorafenib. After that, the cells and the culture medium were separately collected, and the culture medium is concentrated. […] HUVEC culture medium treated with sorafenib, as a conditioned medium, was applied to HaCaT cells, and the expression of SIRT1 in the cells was detected. […] After HUVEC cells with HB-EGF knocked out were constructed, the culture medium obtained after administrated with sorafenib was administrated to the HaCaT cells, and mRNA levels of the keratinization progress indicators, i.e., keratin 1, keratin 10 and Loricrin, were detected. […] The HUVEC culture medium added with sorafenib, as the conditioned medium, was applied to the HaCaT cells in which SIRT1 was knocked out, and the mRNA levels of the three keratins were detected.
In an in vitro cell experimental model, HUVEC cells were administered with 15 μM sorafenib alone, and 15 μM sorafenib together with 10 μM nicotinamide, respectively. After 24 hours, the culture medium was collected as a conditioned medium for HaCaT cells, and the HaCaT cells were collected 24 hours later for the detection of mRNA levels of three keratins.

[2] = test system: HB-EGF protein in HUVEC cells; experiment: Western blot of pro-HB-EGF in cell lysate and s-HB-EGF in culture medium of sorafenib-treated HUVEC cells; format: cell-based; conditions: 15 μM sorafenib, FIG. 1A
Procedure: as §1

SIRT1 in HaCaT cells = experiment: SIRT1 expression in HaCaT cells given sorafenib-treated HUVEC conditioned medium; format: cell-based; conditions: HaCaT cells given sorafenib-treated HUVEC culture medium as conditioned medium, FIG. 1B
Procedure: as §1

[3] = patients treated with sorafenib; cited from earlier work

NC(=O)c1cccnc1 [nicotinamide, 3-pyridinecarboxamide]
mRNA levels of the three keratins (keratin 1, keratin 10, Loricrin) ([1]; HUVEC treated 24 h with 10 μM nicotinamide plus 15 μM sorafenib, medium applied to HaCaT for 24 h, compared with sorafenib alone, FIG. 2): significantly down-regulated

CNC(=O)c1cc(Oc2ccc(NC(=O)Nc3ccc(Cl)c(C(F)(F)F)c3)cc2)ccn1 [sorafenib]
mRNA levels of keratin 1, keratin 10 and Loricrin ([1]; HaCaT cells given medium of sorafenib-treated HUVEC cells with HB-EGF knocked out, FIG. 1C): down-regulated | mRNA levels of keratin 1, keratin 10 and Loricrin ([1]; SIRT1-knocked-out HaCaT cells given sorafenib-treated HUVEC conditioned medium, FIG. 1D): also down-regulated | expression level of the HB-EGF protein in the cells (pro-HB-EGF, cell lysate) ([2]; HUVEC cells): down-regulated | expression of HB-EGF protein in the culture medium (s-HB-EGF) ([2]; HUVEC culture medium, concentrated): increased | expression of SIRT1 in HaCaT cells (SIRT1 in HaCaT cells): up-regulated | prevalence of hand-foot skin reaction (HFSR) [3]: up to 60%
